# Patent US7118731B2, “Drugs for the diagnosis of tissue reproductive activity or the treatment of proliferative diseases” (priority 2002, dated 2006)
# Read-outs that look alike come from different tables or passages of the source. Marks after values point to notes of the source that are not given here.
# Key:
# [1] = tested on: thymidine kinase; assay: in vitro phosphorylation activity by thymidine kinase (crude enzyme from LL/2 cells); assay type: biochemical, mouse; settings: for phosphorylation activity attributed to thymidine kinase: crude enzyme from LL/2 cells; for Phosphorylated material production rate: crude enzyme from LL/2 mouse lung cancer cells, 2 nmole labeled compound, ATP, 37° C., n = 3
# Protocol: Liquid enzyme was extracted from a LL/2 mouse's lung cancer cell strain in the logarithmic growth phase according to the method of Wolcott R M and Colacino J M (Anal. Biochem 178, p.38–40 (1989)). To a reaction liquid containing ATP, which is a phosphate donor, 2 nmole of the label compound and the liquid enzyme were added and reacted at 37° C. for a fixed period of time. The reaction was stopped by adding 1 mL of a 100 mM lanthanum chloride/5 mM triethanolamine solution. Phosphorylated material was prepared by centrifugal separation to form a phosphate-metal complex, followed by measuring a radioactivity of the resulting precipitate with an automatic well-type gamma counter (ARC-380, Aloka Co., Ltd.). […] ITDU and [I-125] ITAU.
# [2] = tested on: L-M cells; assay: incorporation of labeled compounds into L-M cells; assay type: cell-based; settings: for Incorporation, L-M: 2 nmol labeled compound, one hour, L-M cells; for thymidine kinase-dependent incorporation into cells: L-M versus L-M (TK-) cells; for (L-M)/{L-M(TK-)}: ratio of incorporation, L-M to L-M (TK-), T-test
# Protocol: (§1) L-M and L-M (TK-) cells in the logarithmic growth phase were planted on 24-well plates, each carrying 2.0×10^5 cells, and cultured overnight. Then 2 nmol of a radioactive iodine-labeled nucleic acid derivative was added and allowed to be incorporated in the cells for one hour. The cells were washed three times with an ice-cooled phosphate buffer solution, and dissolved in 0.1N NaOH, followed by determination of degree of radioactivity incorporated in the cells using an automatic well-type gamma counter (ARC-380 or ARC-300, Aloka Co., Ltd.). Measurements were analyzed to make evaluations based on the amount of the incorporated label molecules per unit weight of cellular proteins. […] ITdU and [I-125] […] IUR as a control.
# [3] = tested on: L-M (TK-) cells; assay: incorporation of labeled compounds into thymidine kinase-deficient L-M (TK-) cells; assay type: cell-based; settings: 2 nmol labeled compound, one hour
# Protocol: as §1
# [4] = in vivo label stability, accumulation of free iodine in thyroid gland (Example 16); settings: 370 KBq into tail vein, 10 week old normal mice, FIG. 7
# Protocol: To evaluate in vivo label stability of [I-125] ITDU and [I-125] ITAU, tests were conducted to study the accumulation of free iodine in the thyroid gland in normal mice. […] For a control, in vivo distribution of [I-125] IUR was also observed. […] Incorporated radioactivity in tissue was calculated as the administrated dose per gram of the tissue per unit time, and represented in percentage, as shown in FIG. 7. […] ITDU and [I-125]
# [5] = in vivo label stability, accumulation of free iodine in thyroid gland (Example 17); settings: 185 KBq into tail vein, 10 week old normal mice (C57BL/6), longer intervals, FIG. 8
# Protocol: To evaluate in vivo stability of deiodination against each radioactive iodine-labeled nucleic acid derivative, tests were conducted to study accumulation of free iodine in the thyroid gland of normal mice. A 185 KBq of each labeled compound was injected in each of 10 week old normal mice (C57BL/6) into the tail vein, and three animals were sacrificed and anatomized at intervals longer than in Example 16. Incorporation of radioactivity in the thyroid gland was measured with an automatic well-type gamma counter (ARC-300, Aloka Co., Ltd.). Incorporated radioactivity in tissue (% ID) was calculated as the administrated per gram of the tissue, and represented in percentage, as shown in FIG. 8.
# [6] = in vivo distribution of [I-125] ITDU in normal mice; settings: 370 KBq into tail vein, FIG. 9
# Protocol: A 370 KBq of [I-125] ITDU was injected in each of 10 week old normal mice into the tail vein, and three animals were sacrificed and anatomized at appropriate intervals. Incorporation of radioactivity in each tissue sample was measured with an automatic well-type gamma counter (ARC-300, Aloka Co., Ltd.). Incorporated radioactivity in tissue was calculated as the administrated dose per gram of the tissue, and represented in percentage, as shown in FIG. 9.
# [7] = in vivo accumulation in proliferating tissues of normal mice; settings: 185 MBq through tail vein, normal mice (C57BL/6), FIG. 10
# Protocol: To evaluate the accumulation of each radioactive iodine-labeled nucleic acid derivative in proliferating tissues, tests were conducted to study in vivo distribution in normal mice. A 185 MBq of each labeled compound was injected in each of 10 week old normal mice (C57BL/6) through its tail vein, and three animals were sacrificed and anatomized at appropriate intervals. Incorporation of radioactivity in each tissue sample was measured with an automatic well-type gamma counter (ARC-300, Aloka Co., Ltd.). Incorporated radioactivity in tissue was calculated as the administrated dose per unit weight of the tissue, and represented in percentage (% ID/g).
# [8] = biological target: T1, E. coli-originating thymidine phospholylase (Escherichia coli, UniProt P07650); settings: for 5-iodouridine production rate: 2 nmole labeled compound, 9 units enzyme, n = 3; for 5-iodouridine production rate / metabolic stability of glycosidic bond compared with [I-125] IUR: 25° C.; for relative activity (C—N glycosidic bond cleavage): relative to [I-125]IUR = 1.00; for metabolic stability of glycosidic bond compared with [I-125] IUR: thymidine phospholylase
# T1 sequence (P07650 whole entry): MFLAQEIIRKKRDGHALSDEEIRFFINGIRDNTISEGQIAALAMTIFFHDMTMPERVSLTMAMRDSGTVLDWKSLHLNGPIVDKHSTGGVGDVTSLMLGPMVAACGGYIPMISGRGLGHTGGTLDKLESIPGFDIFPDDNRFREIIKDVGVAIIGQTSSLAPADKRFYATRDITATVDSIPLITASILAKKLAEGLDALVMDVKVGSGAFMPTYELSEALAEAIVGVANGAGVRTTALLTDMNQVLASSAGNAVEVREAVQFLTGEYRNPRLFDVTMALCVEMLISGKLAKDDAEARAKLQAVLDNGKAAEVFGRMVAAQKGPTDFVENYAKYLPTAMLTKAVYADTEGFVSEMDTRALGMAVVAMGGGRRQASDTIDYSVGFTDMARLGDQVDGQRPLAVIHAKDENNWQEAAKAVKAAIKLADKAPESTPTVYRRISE
# Protocol: To the reaction liquid, 2 nmole of the labeled compound and 9 units of a liquid enzyme (Sigma Corporation) were added and reacted at 25° C. for a fixed period of time, and the reaction was stopped by treatment in a boiling water bath for 3 minutes. The reaction liquid was subjected to centrifugal separation, and the supernatant was applied over a thin layer silica gel plate along with an authentic standard (5-iodouridine: IU) and a non-labeled parent compound. It was developed with a mixture of chloroform and isopropyl alcohol (3:1), and then autoradiography was measured with a bioimaging analyzer (BAS-1500, Fuji Photo Film Co., Ltd.). The area of interest was set to peak components of the Rf value corresponding to the authentic standard, and the amount of the resulting metabolite was calculated from its proportion in percentage.
# [9] = biological target: T1, E. coli-originating thymidine phospholylase; settings: for 5-IU production rate: 0.5–12.0 nmol labeled compound, 0.0009–9.0 units enzyme, n = 3; for 5-IU production rate / metabolic stability of glycosidic bond compared with [I-125] IUR: 25° C.; for Relative activity (C—N glycosidic linkage cleavage): relative to [I-125]IUR = 1.00; for metabolic stability of glycosidic bond compared with [I-125] IUR: thymidine phospholylase
# Protocol: To the reaction liquid, 0.5–12.0 nmol of the labeled compound and 0.0009–9.0 units of a liquid enzyme (Sigma Corporation) was added and reacted at 25° C. for a fixed period of time, followed by treatment in a boiling water bath for 3 minutes to stop the reaction. […] The reaction liquid was subjected to centrifugal separation, and the supernatant was applied over a silica gel plate along with an authentic standard (5-iodouridine: IU) and a non-labeled parent compound. It was developed with a mixture of chloroform and isopropyl alcohol (3:1), and then the autoradiogram was measured with a bioimaging analyzer (BAS-1500, Fuji Photo Film Co., Ltd.). The area of interest was set to peak components of the Rf value corresponding to the authentic standard, and the amount of the resulting metabolite was calculated from its proportion in percentage. […] FITAU and [I-125] IMBAU, a reversed phase silica gel plate was used, and after development with a mixture of methanol and water (3:7), an autoradiogram was measured with a bioimaging analyzer (BAS-1500; Fuji Photo Film Co., Ltd.) similarly to the [I-125] IUR and others.
# [10] = literature; cited from earlier work
# [11] = tested on: Walker tumor; assay: scintigraphy of Walker tumor; assay type: in vivo; settings: 37 MBq into tail vein, four hours after administration, Walker tumor in Wistar rats, FIG. 11
# Protocol: Malignant tumor, a typical proliferative disease, was observed by scintigraphy. Walker tumor cells were transplanted subcutaneously in the right inguinal region of Wistar rats. After the transplantation, 37 MBq of [I-123] ITDU was injected into the tail vein of rats that suffered a palpable tumor of about 20 mm that was suitable for scintigraphy. Each tumor-transplanted rat was anesthetized with Ravonal four hours after the administration of a drug. Then the rat was fixed in the face-up position and observed statically with gamma-camera imaging equipment (GCA-90B, Toshiba Corporation). Imaging was performed using a high-resolution medium-energy collimator to obtain images for 10 minutes with a resolution of 256×256.
SMILES,"Incorporation, L-M [2] [pmol/mg protein/h]",thymidine kinase-dependent incorporation into cells [2],(L-M)/{L-M(TK-)} [2],"Incorporation, L-M (TK−) [3] [pmol/mg protein/h]",accumulated radioactivity in the thyroid gland (in vivo label stability) [5],relative activity (C—N glycosidic bond cleavage) [8],5-IU production rate [9] [pmol/units/0.5 h],Relative activity (C—N glycosidic linkage cleavage) [9],stability in vivo [10],other results
"O=c1[nH]c(=O)n([C@H]2C[C@H](O)[C@@H](CO)S2)cc1[125I] [[I-125] ITDU, [I-125]-5-iodo-4′-thio-2′-deoxyuridine]",10.90 ± 1.48,incorporated in cells in a thymidine kinase dependent way,2.77*,3.94 ± 0.63,significantly smaller than that from the control [I-125] IUR,0.03,3778.7 ± 692.0,,,"phosphorylation activity attributed to thymidine kinase [1]: confirmed; Phosphorylated material production rate [1]: 1182.7 ± 100.1 p mole/mg protein/h; accumulated radioactivity in the thyroid gland (in vivo label stability) [4]: significantly smaller than that from the control [I-125] IUR; accumulated radioactivity in proliferating tissues (thymus, small intestine) versus non-proliferating tissues (brain, liver, muscle) [6]: certainly higher than that in non-proliferating tissues; accumulation in proliferating tissues (% ID/g) [7]: accumulated in large amounts particularly in the thymus; 5-iodouridine production rate [8]: 4075.9 ± 736.4 p mole/units/30 min; metabolic stability of glycosidic bond compared with [I-125] IUR [8]: stabler than 5-iododeoxyuridine"
"O=c1[nH]c(=O)n([C@H]2C[C@H](O)[C@@H](CO)O2)cc1I [[I-125] IUR, 5-iododeoxyuridine, reference compound]",77.80 ± 7.45,incorporated in cells in a thymidine kinase dependent way,2.79*,27.86 ± 2.94,,1.00,,1.00,,accumulation in proliferating tissues (% ID/g) [7]: accumulated in large amounts particularly in the thymus
"O=c1[nH]c(=O)n(C2S[C@H](CO)[C@@H](O)[C@@H]2O)cc1[125I] (stereo partly drawn) [[I-125] ITAU, [I-125]-5-iodo-1-(4-thio-D-arabinofuranosyl)uracil]",1.68 ± 0.28,,1.40**,1.20 ± 0.20,significantly smaller than that from the control [I-125] IUR,< 0.01,514.8 ± 367.0,<0.01,,phosphorylation activity attributed to thymidine kinase [1]: confirmed; Phosphorylated material production rate [1]: 13.6 ± 6.6 p mole/mg protein/h; accumulated radioactivity in the thyroid gland (in vivo label stability) [4]: significantly smaller than that from the control [I-125] IUR; 5-iodouridine production rate [8]: 524.3 ± 373.8 p mole/units/30 min; metabolic stability of glycosidic bond compared with [I-125] IUR [8]: stabler than 5-iododeoxyuridine
O=c1[nH]c(=O)n([C@@H]2O[C@H](CO)[C@@H](O)[C@@H]2F)cc1I [2′-fluoro-5-iodoarabinouridine],,,,,,,,,high stability in vivo,
"Cn1c(=O)c([125I])cn([C@@H]2O[C@H](CO)[C@@H](O)[C@@H]2Br)c1=O [[I-125] IMBAU, [I-125]-5-iodo-1-methyl-(2-deoxy-2-bromo-β-D-arabinopentofuranosyl)uracil]",,,,,significantly smaller than that from the control [I-125] IUR,,0.0,0.0,,stability under heat treatment ([9]; boiling water bath for 3 minutes used to stop the reaction): unstable under heat treatment; metabolic stability of glycosidic bond compared with [I-125] IUR [9]: still stabler than [I-125] IUR
O=c1[nH]c(=O)n([C@H]2C[C@H](O)[C@@H](CO)O2)cc1I [5-iodo-deoxyuridine],,,,,,,,,decomposed rapidly in vivo,
Cc1cn([C@H]2C[C@H](F)[C@@H](CO)O2)c(=O)[nH]c1=O [3′-deoxy-3′-fluorothymidine],,,,,,,,,high stability in vivo,
"O=c1[nH]c(=O)n([C@H]2C[C@H](O)[C@@H](CO)S2)cc1[123I] [[I-123] ITDU, [I-123]-5-iodo-4′-thio-2′-deoxyuridine]",,,,,,,,,,scintigraphic imaging of transplanted tumor [11]: clear imaging of transplanted tumors
"O=c1[nH]c(=O)n([C@@H]2S[C@H](CO)[C@@H](O)[C@@H]2F)cc1[125I] [[I-125] FITAU, [I-125]-5-iodo-1-(2-deoxy-2-fluoro-4-thio-β-D-arabinopentofuranosyl)uracil]",0.34 ± 0.05,incorporated in cells in a thymidine kinase dependent way,1.62***,0.21 ± 0.05,significantly smaller than that from the control [I-125] IUR,,0.5 ± 0.1,<0.00001,,metabolic stability of glycosidic bond compared with [I-125] IUR [9]: still stabler than [I-125] IUR
